This note sets out measurements from patent publication US9604982B2, “P2X7 modulators” (Janssen Pharmaceutica NV, priority 2013, dated 2017).

The experiment has as its target P2X7 (Homo sapiens (Human), UniProt Q99572). Put plainly: P2X7 antagonism in human peripheral blood mononuclear cells (PBMCs), IL-1β release after LPS + Bz-ATP (ELISA). Type of experiment: cell-based. The settings on record: 0.5 mM Bz-ATP; for remaining activity at 10 µM: read-out: PBMC 10 μM (% control); for PBMC 10 μM (% control): Table 3 (additional runs). How it is done: Human blood was collected using a blood donor program. […] Cells were incubated for an additional 1.5 hours. […] Data are analyzed and graphed on Graphpad Prism 5. […] The IC50 for each compound is then uploaded into 3DX.
On the technique in general: In an ELISA, binding on a coated surface is turned into a signal by an enzyme label.

SMILES strings stand for the structures. Where two headings read alike, the source gives them in different places.

P2X7, sequence (Q99572 whole entry): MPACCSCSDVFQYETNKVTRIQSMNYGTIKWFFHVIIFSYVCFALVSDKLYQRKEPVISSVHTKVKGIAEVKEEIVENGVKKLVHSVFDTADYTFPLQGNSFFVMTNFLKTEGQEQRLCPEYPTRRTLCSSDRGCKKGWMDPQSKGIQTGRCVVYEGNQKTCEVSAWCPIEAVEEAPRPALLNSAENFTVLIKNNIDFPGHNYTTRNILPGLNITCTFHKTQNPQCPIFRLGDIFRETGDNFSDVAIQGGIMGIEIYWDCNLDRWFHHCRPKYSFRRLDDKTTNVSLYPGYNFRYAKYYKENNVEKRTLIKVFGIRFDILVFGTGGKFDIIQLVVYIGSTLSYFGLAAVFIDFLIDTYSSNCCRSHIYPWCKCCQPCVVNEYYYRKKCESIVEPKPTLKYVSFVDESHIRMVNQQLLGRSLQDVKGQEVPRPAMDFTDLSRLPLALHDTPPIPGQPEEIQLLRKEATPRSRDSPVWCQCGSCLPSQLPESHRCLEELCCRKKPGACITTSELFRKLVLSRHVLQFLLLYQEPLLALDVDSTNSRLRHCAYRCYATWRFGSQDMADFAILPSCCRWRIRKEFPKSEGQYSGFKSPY

For `C[C@@H]1c2ncnc(-c3ccn[nH]3)c2CCN1C(=O)c1ccc(F)c(C(F)(F)F)c1Cl` (single isomer, unassigned) [Example 116, (R*)-(2-chloro-4-fluoro-3-(trifluoromethyl)phenyl)(8-methyl-4-(1H-pyrazol-5-yl)-5,6-dihydropyrido[3,4-d]pyrimidin-7(8H)-yl)methanone], the remaining activity at 10 µM (P2X7, Table 2, 10 μM compound) was -4.4%. For the setting “10 μM compound”, the “PBMC 10 μM (% control)” value is on record as −4.4 % control.
The like results for `Cc1nc2c(c(-c3ccn[nH]3)n1)C[C@@H](C)N(C(=O)c1ccc(F)cc1Cl)C2` (single isomer, unassigned) [Example 91, (R*)-(2-chloro-4-fluorophenyl)(2,6-dimethyl-4-(1H-pyrazol-5-yl)-5,6-dihydropyrido[3,4-d]pyrimidin-7(8H)-yl)methanone] were, in that order, -8.8% and −8.8 % control.
The like results for `Cc1nc2c(c(-c3ccn[nH]3)n1)C[C@@H](C)N(C(=O)c1ccc(F)c(Cl)c1Cl)C2` (single isomer, unassigned) [Example 81, (R*)-(2,3-dichloro-4-fluorophenyl)(2,6-dimethyl-4-(1H-pyrazol-5-yl)-5,6-dihydropyrido[3,4-d]pyrimidin-7(8H)-yl)methanone] were, in that order, 21% and 21.0 % control.
As to `C[C@@H]1c2ncnc(-c3ccn[nH]3)c2CCN1C(=O)c1cccc(C(F)(F)F)c1Cl` (single isomer, unassigned) [Example 113, (R*)-(2-chloro-3-(trifluoromethyl)phenyl)(8-methyl-4-(1H-pyrazol-5-yl)-5,6-dihydropyrido[3,4-d]pyrimidin-7(8H)-yl)methanone], under “P2X7, Table 2, 10 μM compound”, the remaining activity at 10 µM was -2.1%. For the same molecule, the “PBMC 10 μM (% control)” value (10 μM compound) is −2.1 % control.
The corresponding values for `Cc1nc2c(c(-c3ccn[nH]3)n1)C[C@@H](C)N(C(=O)c1cccc(Cl)c1Cl)C2` (single isomer, unassigned) [Example 68, (R*)-(2,3-dichlorophenyl)(2,6-dimethyl-4-(1H-pyrazol-5-yl)-5,6-dihydropyrido[3,4-d]pyrimidin-7(8H)-yl)methanone] are -0.5% and −0.5 % control.
The like results for `C[C@H]1c2ncnc(-c3ccn[nH]3)c2CCN1C(=O)c1ccc(F)c(C(F)(F)F)c1Cl` (single isomer, unassigned) [Example 117, (S*)-(2-chloro-4-fluoro-3-(trifluoromethyl)phenyl)(8-methyl-4-(1H-pyrazol-5-yl)-5,6-dihydropyrido[3,4-d]pyrimidin-7(8H)-yl)methanone] were, in that order, 0.1% and 0.1 % control.
Turning to `Cc1nc2c(c(-c3ccn[nH]3)n1)C[C@H](C)N(C(=O)c1ccc(F)cc1F)C2` (single isomer, unassigned) [Example 95, (S*)-(2,4-difluorophenyl)(2,6-dimethyl-4-(1H-pyrazol-5-yl)-5,6-dihydropyrido[3,4-d]pyrimidin-7(8H)-yl)methanone], the remaining activity at 10 µM (P2X7, Table 2, 10 μM compound) was -19.2%.
Turning to `Cc1nc2c(c(-c3ccn[nH]3)n1)C[C@@H](C)N(C(=O)c1cccc(C(F)(F)F)c1C)C2` (single isomer, unassigned) [Example 78, (R*)-(2,6-dimethyl-4-(1H-pyrazol-5-yl)-5,6-dihydropyrido[3,4-d]pyrimidin-7(8H)-yl)(2-methyl-3-(trifluoromethyl)phenyl)methanone], the remaining activity at 10 µM (P2X7, Table 2, 10 μM compound) is 1.4%. For the same molecule, for the setting “10 μM compound”, the “PBMC 10 μM (% control)” value stood at 1.4 % control.
With `Cc1nc2c(c(-c3ccn[nH]3)n1)C[C@H](C)N(C(=O)c1cccc(OC(F)(F)F)c1)C2` (single isomer, unassigned) [Example 142, (S*)-(2,6-dimethyl-4-(1H-pyrazol-5-yl)-5,6-dihydropyrido[3,4-d]pyrimidin-7(8H)-yl)(3-(trifluoromethoxy)phenyl)methanone], the remaining activity at 10 µM (P2X7, Table 3 (additional runs), 10 μM compound) was 73.9%.
